According to PubChem BioAssay AID248 (DTP/NCI, 2004):
Where “and” joins values, the source holds several entries; their conditions need not be identical. Identical values can stand only once. Toxic doses and inconclusive results are not listed. Cut-off read from the data, not from the text of the source: active = T/C of 150% or more; inactive = T/C below 125%.

System: L1210 leukemia ip in BDF1 mice, survival T/C
Test: NCI In Vivo Anticancer Drug Screen. Data for tumor model L1210 Leukemia (intraperitoneal) in B6D2F1 (BDF1) mice
Conditions: endpoint: mean survival time, higher = longer survival
Outline: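 Antitumor effect is assessed in tumor-bearing animals. Survival in the compound arm is compared with a vehicle-dosed control arm and expressed as their quotient.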

[1] = dose: 50.0 mg/kg/injection, schedule: Q01DX001 (ip), vehicle: carboxymethylcellulose (CMC)
[2] = dose: 100.0 mg/kg/injection, schedule: Q01DX001 (ip), vehicle: carboxymethylcellulose (CMC)
[3] = dose: 200.0 mg/kg/injection, schedule: Q01DX001 (ip), vehicle: carboxymethylcellulose (CMC)
[4] = dose: 400.0 mg/kg/injection, schedule: Q01DX001 (ip), vehicle: carboxymethylcellulose (CMC)

Measured: T/C

CC(CCC/C=C/CCCN(C)C(=N)N)CC(C)C1OC(=O)C(C)C(O)/C=C/C(C)C(O)C(C)C(O)C(C)C(O)CCCC(O)CC2(O)OC(CC(OC(=O)CC(=O)O)CC(O)CC(O)C(C)C(O)/C=C/C=C/C1C)CC(O)C2O (stereo not given)
inactive: dose: 0.48 mg/kg/injection, schedule: Q01DX009 (ip), vehicle: saline 90 % of control | dose: 0.73 mg/kg/injection, schedule: Q01DX009 (ip), vehicle: saline 92 % of control | dose: 0.96 mg/kg/injection, schedule: Q04DX003 (ip), vehicle: saline 106 % of control | dose: 1.09 mg/kg/injection, schedule: Q01DX009 (ip), vehicle: saline 92 % of control | dose: 1.46 mg/kg/injection, schedule: Q04DX003 (ip), vehicle: saline 104 % of control | dose: 2.18 mg/kg/injection, schedule: Q04DX003 (ip), vehicle: saline 120 % of control | dose: 3.2 mg/kg/injection, schedule: Q04DX003 (ip), vehicle: saline 97 % of control | dose: 4.9 mg/kg/injection, schedule: Q04DX003 (ip), vehicle: saline 103 % of control and 86 % of control | dose: 7.3 mg/kg/injection, schedule: Q04DX003 (ip), vehicle: saline 92 % of control | dose: 23.0 micrograms/kg/injection, schedule: Q01DX001 (ip), vehicle: saline 98 % of control | dose: 23.0 micrograms/kg/injection, schedule: Q01DX009 (ip), vehicle: saline 100 % of control | dose: 23.0 micrograms/kg/injection, schedule: Q04DX003 (ip), vehicle: saline 105 % of control | dose: 47.0 micrograms/kg/injection, schedule: Q01DX001 (ip), vehicle: saline 104 % of control | dose: 47.0 micrograms/kg/injection, schedule: Q01DX009 (ip), vehicle: saline 108 % of control | dose: 47.0 micrograms/kg/injection, schedule: Q04DX003 (ip), vehicle: saline 106 % of control | dose: 95.0 micrograms/kg/injection, schedule: Q01DX001 (ip), vehicle: saline 97 % of control | dose: 95.0 micrograms/kg/injection, schedule: Q01DX009 (ip), vehicle: saline 94 % of control | dose: 95.0 micrograms/kg/injection, schedule: Q04DX003 (ip), vehicle: saline 101 % of control | dose: 141.0 micrograms/kg/injection, schedule: Q01DX009 (ip), vehicle: saline 106 % of control | dose: 141.0 micrograms/kg/injection, schedule: Q04DX003 (ip), vehicle: saline 97 % of control | dose: 215.0 micrograms/kg/injection, schedule: Q01DX009 (ip), vehicle: saline 105 % of control | dose: 215.0 micrograms/kg/injection, schedule: Q04DX003 (ip), vehicle: saline 100 % of control | dose: 322.0 micrograms/kg/injection, schedule: Q01DX009 (ip), vehicle: saline 103 % of control | dose: 322.0 micrograms/kg/injection, schedule: Q04DX003 (ip), vehicle: saline 103 % of control

Cc1ccc(Nc2cc(N)nc(N)n2)cc1
inactive: dose: 25.0 mg/kg/injection, schedule: Q01DX Z (ip), vehicle: methylcellulose (MC) 100 % of control

CC(Br)(C(CC(=O)C1CC1)c1ccccc1)[N+](=O)[O-] (stereo not given)
inactive: dose: 25.0 mg/kg/injection, schedule: Q01DX009 (ip), vehicle: other 93 % of control | dose: 25.0 mg/kg/injection, schedule: Q04DX003 (ip), vehicle: other 100 % of control | [1] 108 % of control | dose: 50.0 mg/kg/injection, schedule: Q01DX009 (ip), vehicle: other 89 % of control and 90 % of control | dose: 50.0 mg/kg/injection, schedule: Q04DX003 (ip), vehicle: other 96 % of control | [2] 90 % of control | dose: 100.0 mg/kg/injection, schedule: Q01DX009 (ip), vehicle: other 91 % of control | dose: 100.0 mg/kg/injection, schedule: Q04DX003 (ip), vehicle: other 93 % of control and 103 % of control | [3] 92 % of control | [4] 95 % of control

O=C1NC(=O)C2C3C=CC(O3)C12 (stereo not given)
inactive: dose: 100.0 mg/kg/injection, schedule: Q01DX009 (ip), vehicle: saline 106 % of control | dose: 200.0 mg/kg/injection, schedule: Q01DX009 (ip), vehicle: saline 95 % of control | dose: 400.0 mg/kg/injection, schedule: Q01DX009 (ip), vehicle: saline 97 % of control

OCCOCc1ccccc1
inactive: dose: 100.0 mg/kg/injection, schedule: Q04DX003 (ip), vehicle: saline 104 % of control | dose: 200.0 mg/kg/injection, schedule: Q04DX003 (ip), vehicle: saline 98 % of control | dose: 400.0 mg/kg/injection, schedule: Q04DX003 (ip), vehicle: saline 100 % of control

CNC(=O)NC(C)=C(C#N)C#N
inactive: dose: 75.0 mg/kg/injection, schedule: Q01DX001 (ip), vehicle: saline 94 % of control | dose: 150.0 mg/kg/injection, schedule: Q01DX001 (ip), vehicle: saline 111 % of control

CCOC(=O)c1ccc(N)cc1
inactive: dose: 37.5 mg/kg/injection, schedule: Q01DX009 (ip), vehicle: saline with Tween-80 107 % of control | dose: 50.0 mg/kg/injection, schedule: Q01DX001 (ip), vehicle: saline with Tween-80 97 % of control | dose: 75.0 mg/kg/injection, schedule: Q01DX009 (ip), vehicle: saline with Tween-80 107 % of control | dose: 100.0 mg/kg/injection, schedule: Q01DX001 (ip), vehicle: saline with Tween-80 105 % of control | dose: 150.0 mg/kg/injection, schedule: Q01DX009 (ip), vehicle: saline with Tween-80 91 % of control | dose: 200.0 mg/kg/injection, schedule: Q01DX001 (ip), vehicle: saline with Tween-80 94 % of control

Cc1ccc(C#N)cc1.Cc1ccc(C#N)cc1.[Cl][Pt][Cl]
inactive: dose: 6.25 mg/kg/injection, schedule: Q04DX003 (ip), vehicle: water 109 % of control | dose: 12.5 mg/kg/injection, schedule: Q04DX003 (ip), vehicle: water 109 % of control | dose: 25.0 mg/kg/injection, schedule: Q04DX003 (ip), vehicle: water 106 % of control | dose: 50.0 mg/kg/injection, schedule: Q04DX003 (ip), vehicle: water 105 % of control

O=[N+]([O-])c1ccc(N2CCCCC2)cc1
inactive: dose: 100.0 mg/kg/injection, schedule: Q01DX001 (ip), vehicle: other 108 % of control | dose: 100.0 mg/kg/injection, schedule: Q04DX003 (ip), vehicle: Klucel (hydroxypropylcellulose) (HPC) 107 % of control | dose: 200.0 mg/kg/injection, schedule: Q01DX001 (ip), vehicle: other 90 % of control | dose: 200.0 mg/kg/injection, schedule: Q04DX003 (ip), vehicle: Klucel (hydroxypropylcellulose) (HPC) 104 % of control | dose: 222.0 mg/kg/injection, schedule: Q01DX Z (ip), vehicle: methylcellulose (MC) 102 % of control | dose: 333.0 mg/kg/injection, schedule: Q01DX Z (ip), vehicle: methylcellulose (MC) 94 % of control | dose: 400.0 mg/kg/injection, schedule: Q01DX001 (ip), vehicle: other 103 % of control | dose: 400.0 mg/kg/injection, schedule: Q04DX003 (ip), vehicle: Klucel (hydroxypropylcellulose) (HPC) 107 % of control | dose: 500.0 mg/kg/injection, schedule: Q01DX Z (ip), vehicle: methylcellulose (MC) 100 % of control

CCOC(=O)c1ccc(NC(=O)c2cccc(F)c2)cc1
inactive: dose: 100.0 mg/kg/injection, schedule: Q04DX002 (ip), vehicle: saline 91 % of control | dose: 200.0 mg/kg/injection, schedule: Q04DX002 (ip), vehicle: saline 105 % of control | dose: 400.0 mg/kg/injection, schedule: Q04DX002 (ip), vehicle: saline 109 % of control

O=[N+]([O-])/C=C\c1cccc(OCc2ccccc2)c1
inactive: [1] 101 % of control | [2] 103 % of control | [3] 92 % of control | [4] 97 % of control

C/C(=N\NC(N)=S)C1OCCc2ccccc21 (stereo not given)
inactive: dose: 5.0 mg/kg/injection, schedule: Q01DX001 (ip), vehicle: saline 105 % of control | dose: 10.0 mg/kg/injection, schedule: Q01DX001 (ip), vehicle: saline 90 % of control | dose: 20.0 mg/kg/injection, schedule: Q01DX001 (ip), vehicle: saline 98 % of control

O=C1C(=O)N(CNC(c2ccccc2)c2ccccc2)c2ccccc21
inactive: dose: 200.0 mg/kg/injection, schedule: Q04DX003 (ip), vehicle: saline with Tween-80 87 % of control | dose: 400.0 mg/kg/injection, schedule: Q01DX009 (ip), vehicle: saline with Tween-80 96 % of control

CN(C)c1ccc(N=Nc2ccc(S(=O)(=O)O)cc2)cc1
inactive: dose: 100.0 mg/kg/injection, schedule: Q04DX002 (ip), vehicle: Klucel (hydroxypropylcellulose) (HPC) 92 % of control | dose: 200.0 mg/kg/injection, schedule: Q04DX002 (ip), vehicle: Klucel (hydroxypropylcellulose) (HPC) 103 % of control | dose: 400.0 mg/kg/injection, schedule: Q04DX002 (ip), vehicle: Klucel (hydroxypropylcellulose) (HPC) 92 % of control

NC(=O)c1nccc2ccccc12
inactive: dose: 100.0 mg/kg/injection, schedule: Q01DX001 (ip), vehicle: saline 110 % of control | dose: 200.0 mg/kg/injection, schedule: Q01DX001 (ip), vehicle: saline 107 % of control | dose: 400.0 mg/kg/injection, schedule: Q01DX001 (ip), vehicle: saline 98 % of control
